Measured values from patent US6403647B1, “Pulsed administration of compositions for the treatment of blood disorders” (priority 1996, dated 2002).

Experiments:
Bfu-e = experiment: Erythroid colony (Bfu-e) proliferation with maximal growth factors, normal subject; type: cell-based, human; settings: 0.1 mM
Description: Erythroid cells were obtained, as described in Example 1, from a normal subject and cultured on semi-solid medium in the presence of a maximal amount of erythroid growth factors including IL-6, GM-CSF, SCF and EPO. Erythroid proliferation in the presence of these factors is expected to be maximal and, therefore, any increases observed would be significant.

[1] = Total hemoglobin in phlebotomized anemic baboons, continuous versus pulse therapy; type: in vivo, baboon; settings: continuous, 700 mg/kg/day for 5 days; phlebotomized baboon; from 6.7
Protocol: Therapy was administered to anemic baboons who were being phlebotomized 5-10 ml/kg of blood per day on a continuous basis. EPO was administered daily at 300 U/kg/dose. Arginine butyrate was administered daily at 700 mg/kg/day for 5 days and phenoxyacetic acid at 500 mg/kg/day daily over 8 hours and at 1000 mg/kg/day for 24 hours/day daily for five days each. […] With continuous arginine butyrate treatment, hemoglobin remained essentially stable at 6.7 to 6.9 gram/dl. With continuous treatment with phenoxyacetic acid, hemoglobin levels remained stable at 7.0 gram/dl to 6.9 gram/dl during 8 hour therapy and declined from 6.8 to 4.5 when the drug was given for 24 hours per day for 5 days.

[2] = tested on: system A transport of amino acids; experiment: Uptake of 3H-methyl-aminoisobutyric acid (MeAIB) into erythroblasts; type: cell-based
Protocol: Erythroblasts were tested for alterations in uptake of radio-labelled amino acid (^3H-methyl-aminoisobutyric acid; MeAIB) in the presence of AB (arginine butyrate), AMHCA (α-methylhydrocinnamic acid), PAA (phenoxyacetic acid), and IBT (isobutyramide), each at 2.0 mM.

[3] = Conventional versus pulse treatment of a sickle cell patient; type: in vivo, human
Protocol: Conventional treatment: A patient with sickle cell disease was tested with arginine butyrate at 750 mg/kg. Drug was administered by infusion for 10-16 hours per day and 5 days/week. […] After 150 days, total HbF declined to about 10%.
Pulse treatment: Treatment of the same sickle cell patient as above was changed from weekly to pulse administration of arginine butyrate about one year later (FIG. 5B). Arginine butyrate was administered by infusion at 500 to 750 mg/kg for 4 days for about 10-16 hours per day. After the 4 day regimen, drug was withheld for 10 days before treatment was repeated. This regimen was continued for about 5 months and percent total fetal hemoglobin increased to over 20%. This level was maintained until treatment was discontinued. Hemoglobin F levels above 20% are generally considered to be sufficient to eliminate symptoms associated with sickle cell disease.

Half-life = settings: in vivo
[4] = Continuous 24 hour per day infusions in sickle cell disease and beta thalassemia patients; type: in vivo, human
Protocol: Continuous 24 hour per day infusions of was administered in another study to 10 patients with sickle cell disease and beta thalassemia and produced rises in fetal globin in a lower proportion of patients, 40%. Many of these responses were not sustained.
Therefore, the same infusion rate given for 24 hours/day results in a lower response rate than does 8-16 hour/day treatment at the same infusion rate. A lower proportions of patients respond hematologically with continuous 24 hours therapy (1/10 patients) than respond to intermittent pulse therapy 8/10 patients. Hematologic responses are higher with pulse therapy (2-5) gram/dl above baseline levels compared to no responses in patients treated with 24 hour therapy.

Substance: arginine butyrate
- Bfu-e colonies, % of control (Bfu-e): 16 % of control
- total hemoglobin after treatment [1]: 6.9 gram/dl
- amino acid (MeAIB) uptake / transport ([2]; 2.0 mM, relative to untreated fetal liver erythroid cells): inhibited amino acid uptake
- inhibition of MeAIB uptake ([2]; after 60 and 120 minutes): most significant
- percent total HbF ([3]; conventional treatment, after 150 days): about 10%
- percent total HbF ([3]; conventional, 750 mg/kg infusion 10-16 hours per day, 5 days/week, from 3%): 15-18%
- percent total fetal hemoglobin ([3]; pulse, 500 to 750 mg/kg for 4 days, 10 days withheld, about 5 months): over 20%
- half-life (Half-life): 15 min
- proportion of patients with rises in fetal globin ([4]; continuous 24 hour per day infusions, 10 patients): 40%
- patients responding hematologically ([4]; continuous 24 hours therapy): 1/10
